Test results from patent US5270148A, “Processing solution for silver halide color photographic materials and method for processing the materials with the processing solution” (priority 1991, dated 1993).
Read-outs that look alike come from different tables or passages of the source. Blank lines part the entries; values can stand above or below the compound they belong to.

Tests used:
[1] = Example 2: fading of the magenta density at intermediate density portion; settings: formaldehyde 4.0 mmol, 2 weeks 60° C., 70% RH
Experimental: The following processing steps were carried out using the following processing solutions and a cine type automatic processor.
According to a sample, fading of the magenta density at the intermediate density portion and the occurrence of yellow stain at the minimum density portion were observed.

[2] = Example 1: evaluation of image storage stability (magenta fading), stabilizing solution; settings: for M Fading: 2 weeks 60° C. 20% RH
Experimental: In addition, the time for the stabilization step was changed by changing the length of the processing rack.
Thereafter, the sample was allowed to stand for 2 weeks under the conditions of 60° C. 20% RH and then the magenta density was measured again. Thus, magenta fading was evaluated by the reduced magenta density in the density stage that the magenta density after processing was 1.5. (M fading)

[3] = Example 4: image storage stability (magenta fading), color reversal material; settings: 80° C. for 3 days
Experimental: Sample 401 prepared was slit in 35 mm width, and after perforated in the same format as films on the market and applying thereto a uniform light exposure, the sample was processed according to the following processing steps using an hanging type automatic processor.
The image storage stability test was carried out under the condition of 80° C. for 3 days. Also, in a bright place, the presence of unevenness of the sample was visually observed.

[4] = oxidation reduction potential of aminopolycarboxylic acid ferric complex salts (bleaching agents); format: physicochemical; settings: vs. NHE, pH = 6
Excerpt: Then, practical examples of the aminopolycarboxylic acid ferric complex salt in this invention are illustrated below together with their oxidation reduction potentials, but the bleaching agents for use in this invention are not limited to these compounds.
The oxidation reduction potential of the bleaching agent is defined as the oxidation reduction potential obtained by the method described in Transactions of the Faraday Society, Vol. 55, (1959), pages 1312-1313.

[5] = Example 6: image storage stability (magenta fading), image stabilizer in conditioning bath
Experimental: The same processing steps as in Example 4 were carried out except for changing the conditioning solution and the stabilizing solution as follows.
In this case, the time for the final stabilizing step was one minute and the time for the conditioning step was changed as shown in Table E in the processing.
By using the same method as in Example 1, the image storage stability of the processed film obtained and the vapor pressure of formaldehyde were evaluated.

[6] = acid dissociation constant pKa of secondary amines of formula (II); settings: in water at room temperature (about 25° C.)
[7] = Example 3: turbidity of concentrated stabilizing replenisher after passage of time; format: physicochemical; set-up: key to Turbidity after Passage of Time: E: Neither turbidity nor precipitation.; G: Turbidity occurred very slightly.; M: Slightly precipitation formed at the bottom of the vessel in addition to turbidity.; B: Precipitation layer of 5 mm or more formed on the bottom of the vessel; settings: 40° C.
Experimental: One liter of the concentrated stabilizing replenisher shown below was prepared and filled in a 1.2 liter polyethylene bottle.
After allowing to stand the concentrated solution thus-prepared at 40° C. for 1 month or 6 months, the turbidity of the solution was visually observed.
In addition, the evaluation standards of the turbidity of the solution with the passage of time in Table C are as follows.

[8] = water
human body = settings: cited from earlier work
[9] = 5 mmol/l, stabilization time 10 sec.
[10] = 5 mmol/l, stabilization time 20 sec.
[11] = 5 mmol/l, stabilization time 60 sec.
[12] = 3 mmol/l, time of conditioning bath 40 sec.
[13] = 3 mmol/l, time of conditioning bath 90 sec.
[14] = 3 mmol/l, time of conditioning bath 120 sec.
[15] = 27 mmol/l, stabilization time 10 sec.
[16] = 27 mmol/l, stabilization time 20 sec.
[17] = 27 mmol/l, stabilization time 60 sec.
[18] = 13 mmol/l, time of conditioning bath 40 sec.
[19] = 13 mmol/l, time of conditioning bath 90 sec.
[20] = 13 mmol/l, time of conditioning bath 120 sec.

Compound: C1COCCN1 [II-21]
M-Fading ([1]; formula (II) 4 mmol): 0.04

Compound: c1ncn(CN2CCOCC2)n1 [Compound A-26]
M Fading [2, 9]: 0.03
M Fading [2, 10]: 0.01
M Fading [2, 11]: 0.01
M Fading ([3]; 6 mmol/l): 0.00

Compound: C1CNCCN1 [II-22]
M-Fading ([1]; formula (II) 2 mmol): 0.03
M-Fading ([1]; formula (II) 4 mmol): 0.02

Compound: Iminodiacetic Acid Ferric Complex Salt [compound 3]
Oxidation Reduction Potential [4]: 210 mV

Compound: 1,4-Butylenediaminetetraacetic Acid Ferric Salt [compound 4]
Oxidation Reduction Potential [4]: 230 mV

Compound: Cc1ccn(CN(CCO)CCO)n1 [Compound A-11]
M Fading [2, 9]: 0.10
M Fading [2, 10]: 0.05
M Fading [2, 11]: 0.00
M Fading [5, 12]: 0.01
M Fading [5, 13]: 0.00
M Fading [5, 14]: 0.00

Compound: C1NCC2CNCC1C2 [II-27]
pKa [6]: 11.3

Compound: Glycol Ether Diaminetetraacetic Acid Ferric Complex Salt [compound 6]
Oxidation Reduction Potential [4]: 240 mV

Compound: 1,3-Propylenediaminetetraacetic Acid Ferric Complex Salt [compound 7]
Oxidation Reduction Potential [4]: 250 mV

Compound: N-(2-Acetamido)iminodiacetic Acid Ferric Complex Salt [compound 1]
Oxidation Reduction Potential [4]: 180 mV

Compound: C1N2CN3CN1CN(C2)C3 [Hexamethylenetetramine, reference compound]
M Fading [2, 9]: 0.30
M Fading [2, 10]: 0.31
M Fading [2, 11]: 0.30
M Fading [2, 15]: 0.28
M Fading [2, 16]: 0.27
M Fading [2, 17]: 0.28
fading inhibition effect (in words) ([2]; Table A): the fading inhibition effect is insufficient even when a large amount of the compound is used
M Fading ([3]; 6 mmol/l): 0.29
M Fading ([3]; 100 mmol/l): 0.10
M Fading [5, 12]: 0.25
M Fading [5, 13]: 0.22
M Fading [5, 14]: 0.10
M Fading [5, 18]: 0.09
M Fading [5, 19]: 0.05
M Fading [5, 20]: 0.02

Compound: OCCN(CCO)Cn1cccn1 [Compound A-1]
Turbidity after Passage of Time ([7]; 0.5 mol, 1 month): G
Turbidity after Passage of Time ([7]; 0.5 mol, 6 months): M
M Fading ([3]; 6 mmol/l): 0.04

Compound: O=C1N(CO)CCN1CO [Dimethylolethyleneurea, reference compound]
Turbidity after Passage of Time ([7]; 0.3 mol, 1 month): M
Turbidity after Passage of Time ([7]; 0.3 mol, 6 months): B (Precipitation layer of 5 mm or more formed on the bottom of the vessel.)

Compound: c1cnn(CN2CCCCC2)c1 [Compound A-17]
M Fading [2, 9]: 0.02
M Fading [2, 10]: 0.01
M Fading [2, 11]: 0.00

Compound: c1ncn(CN2CCN(Cn3cncn3)CC2)n1 [Compound A-23]
M Fading [2, 9]: 0.00
M Fading [2, 10]: 0.00
M Fading [2, 11]: 0.00
Turbidity after Passage of Time ([7]; 0.5 mol, 1 month): G
Turbidity after Passage of Time ([7]; 0.5 mol, 6 months): M
M Fading ([3]; 6 mmol/l): 0.00
M Fading [5, 12]: 0.00
M Fading [5, 13]: 0.00
M Fading [5, 14]: 0.00

Compound: Diethylenetriaminepentaacetic Acid Ferric Complex Salt [compound 9]
Oxidation Reduction Potential [4]: 80 mV

Compound: OCCN(CCO)Cn1cncn1 [Compound A-12]
Turbidity after Passage of Time ([7]; 0.5 mol, 1 month): G
Turbidity after Passage of Time ([7]; 0.5 mol, 6 months): M

Compound: Methyliminodiacetic Acid Ferric Complex Salt [compound 2]
Oxidation Reduction Potential [4]: 200 mV

Compound: CNC [II-1]
pKa [6]: 10.9

Compound: c1cnn(CN2CCOCC2)c1 [Compound A-16]
M Fading [2, 9]: 0.02
M Fading [2, 10]: 0.00
M Fading [2, 11]: 0.00
M Fading ([3]; 6 mmol/l): 0.05

Compound: OCN1CCN(Cn2cncn2)CC1 [Compound A-45]
M Fading [2, 9]: 0.04
M Fading [2, 10]: 0.01
M Fading [2, 11]: 0.01
M Fading [5, 12]: 0.01
M Fading [5, 13]: 0.01
M Fading [5, 14]: 0.01

Compound: c1cnn(CN2CCN(Cn3cccn3)CC2)c1 [Compound A-22]
M Fading [2, 9]: 0.01
M Fading [2, 10]: 0.00
M Fading [2, 11]: 0.00
Turbidity after Passage of Time ([7]; 0.5 mol, 1 month): G
Turbidity after Passage of Time ([7]; 0.5 mol, 6 months): M
M Fading ([3]; 6 mmol/l): 0.00
M Fading [5, 12]: 0.01
M Fading [5, 13]: 0.00
M Fading [5, 14]: 0.00

Compound: c1nc[nH]n1 [Compound I-4]
M-Fading ([1]; formula (I) 4 mmol): 0.16
M-Fading ([1]; formula (I) 16 mmol): 0.17

Compound: CCNC[Si](C)(C)C [II-13]
pKa [6]: 11.1

Compound: OCCN1CCN(Cn2cccn2)CC1 [Compound A-32]
M Fading ([3]; 6 mmol/l): 0.00
M Fading [5, 12]: 0.01
M Fading [5, 13]: 0.01
M Fading [5, 14]: 0.01

Compound: C=O [Formaldehyde, reference compound]
M Fading [2, 9]: 0.20
M Fading [2, 10]: 0.15
M Fading [2, 11]: 0.08
M Fading [2, 15]: 0.03
M Fading [2, 16]: 0.00
M Fading [2, 17]: 0.00
M-Fading ([1]; no formula (I) or (II) additive): 0.15
Turbidity after Passage of Time ([7]; 2.0 mol, 1 month): M
Turbidity after Passage of Time ([7]; 2.0 mol, 6 months): M
turbidity / precipitates on storage (in words) ([7]; concentrated stabilizing replenisher, 1 month or 6 months): white floatings precipitates accumulated on the bottom of the vessel
M Fading [5, 12]: 0.11
M Fading [5, 13]: 0.00
M Fading [5, 14]: 0.00
M Fading [5, 18]: 0.03
M Fading [5, 19]: 0.00
M Fading [5, 20]: 0.00
allowable concentration in a working environment (human body; Japan Association of Industrial Health): ≤ 0.5 ppm
harm on inhalation (in words) (human body; human body): harmful for the human body

Results, then the compound that gave them:

pKa [6]: 9.9
Compound: CCN(CC)CCNC [II-14]

pKa [6]: 8.3
Compound: CCOC(=O)N1CCNCC1 [II-26]

pKa [6]: 9.9
Compound: CNCCNC [II-15]

pKa [6]: 8.3
Compound: CCCCNCCC#N [II-10]

pKa [8]: 9.3
Compound: C=CCNCC=C [II-3]

pKa [6]: 10.9
Compound: C1CCCNCC1 [II-23]

pKa [6]: 10.9
Compound: CCCCNC [Compound 11-5]

pKa [6]: 10.2
Compound: CCNCCNCC [II-16]

pKa [6]: 9.8
Compound: CNCCO [II-8]

pKa [6]: 10.8
Compound: CC1CCNCC1 [II-24]

pKa [6]: 10.1
Compound: CCNCCO [II-6]

pKa [6]: 9.7
Compound: CC1CNC(C)CN1 (stereo not drawn) [II-25]

pKa [6]: 8.8
Compound: CNCC(=O)N(C)C [II-12]

pKa [6]: 10.6
Compound: CCNCCCNCC [II-18]

pKa [6]: 8.0
Compound: CC(C)NCCC#N [II-11]

pKa [6]: 9.6
Compound: CNCCCCO [II-9]

pKa [6]: 9.2
Compound: OCCNCCNCCO [II-17]
